Measured values: patent publication US20230312587A1, “PTERIDINONE COMPOUNDS AND USES THEREOF” (Vertex Pharmaceutical Incorporated, priority 2018, published 2023)

Experiments:
[1] = target: HEK293 membranes over-expressing WFS-1 (Homo sapiens (Human), UniProt O76024); assay: Radioligand displacement assay (tritiated Compound 136 probe); type: binding; settings: displacement of tritiated Compound 136
In short: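 WFS-1-overexpressing HEK293 membranes were preincubated 10 min with compound, then tritiated probe was added for 90 min at room temperature. Bound probe was collected by filtration on PEI-pretreated GF/B filters, washed and scintillation-counted. IC50 came from a 3-parameter fit of bound probe vs compound concentration.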

[2] = test system: β-catenin-TCF-mediated reporter transcription activity in Colo 205 cells; assay: Colo 205 reporter assay (TCF/LEF luciferase); type: cell-based; settings: Homo sapiens, COLO 205, 5 h, Colo 205 TCF/LEF luciferase reporter, five hours after addition of compound; read-out: TCF reporter Colo205 IC50
In short: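 Luciferase signal from a TCF/LEF-driven reporter, stably integrated in Colo 205 colon cancer cells, was measured 5 h after compound addition.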

HEK293 membranes over-expressing WFS-1, sequence (O76024 whole entry): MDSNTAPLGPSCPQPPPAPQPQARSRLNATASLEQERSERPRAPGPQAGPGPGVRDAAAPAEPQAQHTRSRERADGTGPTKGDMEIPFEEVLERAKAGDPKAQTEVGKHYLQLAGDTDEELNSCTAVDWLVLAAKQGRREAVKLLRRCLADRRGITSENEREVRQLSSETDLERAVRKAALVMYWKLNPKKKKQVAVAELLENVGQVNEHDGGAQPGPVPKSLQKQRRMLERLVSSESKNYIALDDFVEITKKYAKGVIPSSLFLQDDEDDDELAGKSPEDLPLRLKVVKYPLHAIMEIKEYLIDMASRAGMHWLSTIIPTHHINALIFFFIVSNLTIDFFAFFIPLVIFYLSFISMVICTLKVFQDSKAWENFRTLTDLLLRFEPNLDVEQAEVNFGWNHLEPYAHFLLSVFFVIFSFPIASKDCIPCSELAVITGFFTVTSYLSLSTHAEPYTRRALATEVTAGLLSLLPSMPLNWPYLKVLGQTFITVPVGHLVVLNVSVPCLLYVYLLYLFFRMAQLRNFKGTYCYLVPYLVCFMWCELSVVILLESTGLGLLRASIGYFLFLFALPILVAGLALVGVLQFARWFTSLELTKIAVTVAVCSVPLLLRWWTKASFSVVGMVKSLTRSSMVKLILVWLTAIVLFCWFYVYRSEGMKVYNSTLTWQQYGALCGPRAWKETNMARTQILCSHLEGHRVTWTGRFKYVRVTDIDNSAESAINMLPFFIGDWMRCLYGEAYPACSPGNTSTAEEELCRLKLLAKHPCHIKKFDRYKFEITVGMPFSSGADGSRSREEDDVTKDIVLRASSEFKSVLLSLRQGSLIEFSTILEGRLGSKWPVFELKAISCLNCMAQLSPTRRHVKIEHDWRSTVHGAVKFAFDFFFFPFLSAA

SMILES | IC50 [1] [nM] | IC50 [2] [nM]
Cc1nc(NCc2cnn([C@H]3CCN(C4CCC(F)(F)CC4)C3)c2)nc2c1NC(=O)[C@H](C)N2C [Compound 142, (7S)-2-(((1-((S)-1-(4,4-difluorocyclohexyl)pyrrolidin-3-yl)-1H-pyrazol-4-yl)methyl)amino)-4,7,8-trimethyl-7,8-dihydropteridin-6(5H)-one] | 60 to 600 | 300 to 1000
Cc1nc(NCc2ccc(-n3cc(C(F)(F)F)cn3)nc2)nc2c1NC(=O)[C@H](C)N2C [Compound 143, (S)-4,7,8-trimethyl-2-(((6-(4-(trifluoromethyl)-1H-pyrazol-1-yl)pyridin-3-yl)methyl)amino)-7,8-dihydropteridin-6(5H)-one] | 60 to 600 | 300 to 1000
Cc1nc(NCc2cnn(Cc3ccc(C(F)(F)F)cc3)c2)nc2c1NC(=O)[C@H](C)N2C [Compound 149, (7S)-4,7,8-trimethyl-2-(((1-(4-(trifluoromethyl)benzyl)-1H-pyrazol-4-yl)methyl)amino)-7,8-dihydropteridin-6(5H)-one] | 60 to 600 | < 300
Cc1nc(NCc2cnn([C@@H]3C[C@@H]3c3ccc(F)cc3)c2)nc2c1NC(=O)[C@H](C)N2C [Compound 154, (7S)-2-(((1-((1R,2R)-2-(4-fluorophenyl)cyclopropyl)-1H-pyrazol-4-yl)methyl)amino)-4,7,8-trimethyl-7,8-dihydropteridin-6(5H)-one] | < 60 | < 300
Cc1nc(NCc2cnn(Cc3cc(C(F)(F)F)nn3C)c2)nc2c1NC(=O)[C@H](C)N2C [Compound 160, (7S)-4,7,8-trimethyl-2-(((1-((1-methyl-3-(trifluoromethyl)-1H-pyrazol-5-yl)methyl)-1H-pyrazol-4-yl)methyl)amino)-7,8-dihydropteridin-6(5H)-one] | 60 to 600 | < 300
Cc1ncc(Cn2cc(CNc3nc(C)c4c(n3)N(C)[C@@H](C)C(=O)N4)cn2)cn1 [Compound 163, (7S)-4,7,8-trimethyl-2-(((1-((2-methylpyrimidin-5-yl)methyl)-1H-pyrazol-4-yl)methyl)amino)-7,8-dihydropteridin-6(5H)-one] | ≥ 3000 | 1000 to 5000
Cc1cnc(C(F)(F)F)nc1-n1cc(CNc2ncc3c(n2)N(C)[C@@H](C)C(=O)N3)cn1 [Compound 164, (7S)-7,8-dimethyl-2-(((1-(5-methyl-2-(trifluoromethyl)pyrimidin-4-yl)-1H-pyrazol-4-yl)methyl)amino)-7,8-dihydropteridin-6(5H)-one] | 60 to 600 | 1000 to 5000
Cc1nc(NCc2cnn([C@@H]3CCN(c4ccc(F)cc4)C3)c2)nc2c1NC(=O)[C@H](C)N2C [Compound 170, (7S)-2-(((1-((R)-1-(4-fluorophenyl)pyrrolidin-3-yl)-1H-pyrazol-4-yl)methyl)amino)-4,7,8-trimethyl-7,8-dihydropteridin-6(5H)-one] | 60 to 600 | < 300
Cc1ccc(Cn2cc(CNc3nc(C)c4c(n3)N(C)[C@@H](C)C(=O)N4)cn2)cn1 [Compound 173, (7S)-4,7,8-trimethyl-2-(((1-((6-methylpyridin-3-yl)methyl)-1H-pyrazol-4-yl)methyl)amino)-7,8-dihydropteridin-6(5H)-one] | 600 to 3000 | 1000 to 5000
Cc1nc(NCc2cnn([C@@H](C)c3ccc(C(F)(F)F)nc3)c2)nc2c1NC(=O)[C@H](C)N2C [Compound 174, (7S)-4,7,8-Trimethyl-2-(((1-((S)-1-(6-(trifluoromethyl)pyridin-3-yl)ethyl)-1H-pyrazol-4-yl)methyl)amino)-7,8-dihydropteridin-6(5H)-one] | 60 to 600 | < 300
CC[C@H]1C(=O)Nc2c(C)nc(NCc3cnn(Cc4ccc(C(F)(F)F)nc4)c3)nc2N1C [Compound 186, (7S)-7-ethyl-4,8-dimethyl-2-(((1-((6-(trifluoromethyl)pyridin-3-yl)methyl)-1H-pyrazol-4-yl)methyl)amino)-7,8-dihydropteridin-6(5H)-one] | 60 to 600 | < 300
Cc1nc(C(F)(F)F)ccc1Cn1cc(CNc2nc(C)c3c(n2)N(C)[C@@H](C)C(=O)N3)cn1 [Compound 188, (S)-4,7,8-trimethyl-2-(((1-((2-methyl-6-(trifluoromethyl)pyridin-3-yl)methyl)-1H-pyrazol-4-yl)methyl)amino)-7,8-dihydropteridin-6(5H)-one] | 60 to 600 | < 300
Cc1nc(NCc2cnn(Cc3ccnc(C(F)(F)F)c3)c2)nc2c1NC(=O)[C@H](C)N2C [Compound 207, (7S)-4,7,8-trimethyl-2-(((1-((2-(trifluoromethyl)pyridin-4-yl)methyl)-1H-pyrazol-4-yl)methyl)amino)-7,8-dihydropteridin-6(5H)-one] | 60 to 600 | < 300
Cc1nc(NCc2cnn(Cc3ccc(F)cc3)c2)nc2c1NC(=O)C1(CC1)N2 [Compound 222, 2′-(((1-(4-fluorobenzyl)-1H-pyrazol-4-yl)methyl)amino)-4′-methyl-5′,8′-dihydro-6′H-spiro[cyclopropane-1,7′-pteridin]-6′-one] | 600 to 3000 | ≥ 5000
CN1C(=O)C(C)(C)N(C)c2nc(NCc3cnn(Cc4cccnc4C(F)(F)F)c3)ncc21 [Compound 237, 5,7,7,8-Tetramethyl-2-(((1-((2-(trifluoromethyl)pyridin-3-yl)methyl)-1H-pyrazol-4-yl)methyl)amino)-7,8-dihydropteridin-6(5H)-one] | 60 to 600 | 300 to 1000
Cc1nc(N[C@H]2C[C@H](Oc3cc(F)c(F)c(F)c3)C2)nc2c1NC(=O)[C@H](C)N2C [Compound 246, (7S)-4,7,8-trimethyl-2-((trans-3-(3,4,5-trifluorophenoxy)cyclobutyl)amino)-7,8-dihydropteridin-6(5H)-one] | 60 to 600 | < 300
Cc1nc(N[C@H]2C[C@@H](Oc3cc(F)c(F)c(F)c3)C2)nc2c1NC(=O)[C@H](C)N2C [Compound 247, (7S)-4,7,8-trimethyl-2-((cis-3-(3,4,5-trifluorophenoxy)cyclobutyl)amino)-7,8-dihydropteridin-6(5H)-one] | 60 to 600 | 1000 to 5000
Cc1nc(N[C@H]2C[C@H](Oc3ccc(F)cc3)C2)nc2c1N(C)C(=O)[C@H](C)N2C [Compound 250, (7S)-2-((trans-3-(4-fluorophenoxy)cyclobutyl)amino)-4,5,7,8-tetramethyl-7,8-dihydropteridin-6(5H)-one] | 60 to 600 | 300 to 1000
Cc1nc(N[C@H]2C[C@H](Oc3cc(F)c(F)c(F)c3)C2)nc2c1N(C)C(=O)[C@H](C)N2C [Compound 253, (7S)-4,5,7,8-tetramethyl-2-((trans-3-(3,4,5-trifluorophenoxy)cyclobutyl)amino)-7,8-dihydropteridin-6(5H)-one] | < 60 | < 300
Cc1nc(N[C@H]2C[C@@H](COc3cc(F)c(F)c(F)c3)C2)nc2c1NC(=O)[C@H](C)N2C [Compound 257, (7S)-4,7,8-Trimethyl-2-((cis-3-((3,4,5-trifluorophenoxy)methyl)cyclobutyl)-amino)-7,8-dihydropteridin-6(5H)-one] | 60 to 600 | < 300
Cc1nc(N[C@H]2C[C@H](COc3cc(F)c(F)c(F)c3)C2)nc2c1NC(=O)[C@H](C)N2C [Compound 258, (7S)-4,7,8-trimethyl-2-((trans-3-((3,4,5-trifluorophenoxy)methyl)-cyclobutyl)amino)-7,8-dihydropteridin-6(5H)-one] | 60 to 600 | 1000 to 5000
Cc1nc(N[C@@H]2CC[C@@H](Oc3cc(F)c(F)c(F)c3)C2)nc2c1N(C)C(=O)[C@H](C)N2C [Compound 272, (S)-4,5,7,8-tetramethyl-2-(((1R,3R)-3-(3,4,5-trifluorophenoxy)cyclopentyl)amino)-7,8-dihydropteridin-6(5H)-one] | 60 to 600 | < 300
Cc1nc(N[C@H]2C[C@@H](Sc3ccc(F)cc3)C2)nc2c1N(C)C(=O)[C@H](C)N2C [Compound 305, (7S)-2-((cis-3-((4-fluorophenyl)thio)cyclobutyl)amino)-4,5,7,8-tetramethyl-7,8-dihydropteridin-6(5H)-one] | 60 to 600 | 300 to 1000
Cc1nc(N[C@H]2C[C@H](Sc3ccc(F)cc3)C2)nc2c1N(C)C(=O)[C@H](C)N2C [Compound 307, (7S)-2-((trans-3-((4-fluorophenyl)thio)cyclobutyl)amino)-4,5,7,8-tetramethyl-7,8-dihydropteridin-6(5H)-one] | 60 to 600 | 1000 to 5000
Cc1nc(N[C@H]2C[C@H](Oc3ccc(C(F)(F)F)nc3)C2)nc2c1NC(=O)[C@H](C)N2C [Compound 324, (7S)-4,7,8-trimethyl-2-((trans-3-((6-(trifluoromethyl)pyridin-3-yl)oxy)cyclobutyl)amino)-7,8-dihydropteridin-6(5H)-one] | < 60 | < 300
Cc1nc(N[C@H]2C[C@H](Sc3cc(F)c(F)c(F)c3)C2)nc2c1NC(=O)[C@H](C)N2C [Compound 329, (7S)-4,7,8-trimethyl-2-((trans-3-((3,4,5-trifluorophenyl)thio)-cyclobutyl)amino)-7,8-dihydropteridin-6(5H)-one] | 60 to 600 | < 300
Cc1nc(N[C@H]2C[C@@H](Sc3cc(F)c(F)c(F)c3)C2)nc2c1NC(=O)[C@H](C)N2C [Compound 332, (7S)-4,7,8-trimethyl-2-((cis-3-((3,4,5-trifluorophenyl)thio)cyclobutyl)amino)-7,8-dihydropteridin-6(5H)-one] | 60 to 600 | < 300
Cc1nc(N[C@H]2C[C@H](Oc3ccnc(C(F)(F)F)c3)C2)nc2c1NC(=O)[C@H](C)N2C [Compound 335, (7S)-4,7,8-trimethyl-2-((trans-3-((2-(trifluoromethyl)pyridin-4-yl)oxy)cyclobutyl)amino)-7,8-dihydropteridin-6(5H)-one] | < 60 | < 300
